Test results from patent US8207178B2 (priority 2007, dated 2012).

Columns and labels:
wild type HIV-1 = test: microbe, parasite or virus in culture; type: cell-based, human immunodeficiency virus type 1 (HIV-1); settings: Human immunodeficiency virus 1, Hela-JC53
HIV-1 K103N-L100I mutant = test: microbe, parasite or virus in culture; type: cell-based, human immunodeficiency virus type 1 (HIV-1); settings: Human immunodeficiency virus 1, HeLa, read-out: EC50 mutant K103N-L100I, mutant K103N-L100I

Row | Structure (SMILES) | EC50 (wild type HIV-1) [nM] | EC50 (HIV-1 K103N-L100I mutant) [nM]
1 | Cc1cc(-c2ccc(S(N)(=O)=O)cc2)cc(C)c1Oc1nc(Nc2ccc(C#N)cc2)nc2ccn(C)c12 [Example 72, 4′-(2-(4-cyanophenylamino)-5-methyl-5H-pyrrolo[3,2-d]pyrimidin-4-yloxy)-3′,5′-dimethylbiphenyl-4-sulfonamide] | 1 to 10 | < 1
2 | Cc1cc(-c2ccccc2S(N)(=O)=O)cc(C)c1Oc1nc(Nc2ccc(C#N)cc2)nc2ccn(C)c12 [Example 73, 4′-(2-(4-cyanophenylamino)-5-methyl-5H-pyrrolo[3,2-d]pyrimidin-4-yloxy)-3′,5′-dimethylbiphenyl-2-sulfonamide] | > 10 | > 10
3 | Cc1cc(-c2ccccc2S(=O)(=O)NC(C)(C)C)cc(C)c1Oc1nc(Nc2ccc(C#N)cc2)nc2ccn(C)c12 [Example 74, N-tert-butyl-4′-(2-(4-cyanophenylamino)-5-methyl-5H-pyrrolo[3,2-d]pyrimidin-4-yloxy)-3′,5′-dimethylbiphenyl-2-sulfonamide] | > 10 | > 10
4 | Cc1cc(-c2ccc(C(=O)O)cc2)cc(C)c1Oc1nc(Nc2ccc(C#N)cc2)nc2ccn(C)c12 [Example 75, 4′-(2-(4-cyanophenylamino)-5-methyl-5H-pyrrolo[3,2-d]pyrimidin-4-yloxy)-3′,5′-dimethylbiphenyl-4-carboxylic acid] | < 1 | 1 to 10
5 | Cc1cc(-c2cnn(Cc3ccccc3)c2)cc(C)c1Oc1nc(Nc2ccc(C#N)cc2)nc2ccn(C)c12 [Example 76, 4-(4-(4-(1-benzyl-1H-pyrazol-4-yl)-2,6-dimethylphenoxy)-5-methyl-5H-pyrrolo[3,2-d]pyrimidin-2-ylamino)benzonitrile] | 1 to 10 | > 10
6 | Cc1cc(-c2cccc(C(N)=O)c2)cc(C)c1Oc1nc(Nc2ccc(C#N)cc2)nc2ccn(C)c12 [Example 77, 4′-(2-(4-cyanophenylamino)-5-methyl-5H-pyrrolo[3,2-d]pyrimidin-4-yloxy)-3′,5′-dimethylbiphenyl-3-carboxamide] | 1 to 10 | > 10
7 | Cc1cc(-c2ccnc(N3CCOCC3)c2Cl)cc(C)c1Oc1nc(Nc2ccc(C#N)cc2)nc2ccn(C)c12 [Example 79, 4-(4-(4-(3-chloro-2-morpholinopyridin-4-yl)-2,6-dimethylphenoxy)-5-methyl-5H-pyrrolo[3,2-d]pyrimidin-2-ylamino)benzonitrile] | 1 to 10 | 1 to 10
8 | Cc1cc(-c2cccnc2Cl)cc(C)c1Oc1nc(Nc2ccc(C#N)cc2)nc2ccn(C)c12 [Example 80, 4-(4-(4-2-chloropyridin-3-yl)-2,6-dimethylphenoxy)-5-methyl-5H-pyrrolo[3,2-d] pyrimidin-2-ylamino benzonitrile] | 1 to 10 | 1 to 10
9 | COc1cccc(-c2cc(C)c(Oc3nc(Nc4ccc(C#N)cc4)nc4ccn(C)c34)c(C)c2)c1C#N [Example 81, 4′-(2-(4-cyanophenylamino)-5-methyl-5H-pyrrolo[3,2-d]pyrimidin-4-yloxy)-3-methoxy-3′,5′-dimethylbiphenyl-2-carbonitrile] | 1 to 10 | > 10
10 | Cc1cc(-c2ccc(C#N)nc2)cc(C)c1Oc1nc(Nc2ccc(C#N)cc2)nc2ccn(C)c12 [Example 84, 5-(4-(2-(4-cyanophenylamino)-5-methyl-5H-pyrrolo[3,2-d]pyrimidin-4-yloxy)-3,5-dimethyl-phenyl)picolinonitrile] | 1 to 10 | 1 to 10
11 | Cc1cc(-c2ccc(S(=O)(=O)NC3CC3)cc2)cc(C)c1Oc1nc(Nc2ccc(C#N)cc2)nc2ccn(C)c12 [Example 85, 4′-(2-(4-cyanophenylamino)-5-methyl-5H-pyrrolo[3,2-d]pyrimidin-4-yloxy)-N-cyclopropyl-3′,5′-dimethylbiphenyl-4-sulfonamide] | 1 to 10 | > 10
12 | Cc1cc(-c2cc3ccccc3[nH]2)cc(C)c1Oc1nc(Nc2ccc(C#N)cc2)nc2ccn(C)c12 [Example 86, 4-(4-(4-(1H-indol-2-yl)-2,6-dimethylphenoxy)-5-methyl-5H-pyrrolo[3,2-d]pyrimidin-2-ylamino)benzonitrile] | > 10 | > 10
13 | COc1cncc(-c2cc(C)c(Oc3nc(Nc4ccc(C#N)cc4)nc4ccn(C)c34)c(C)c2)c1 [Example 87, 4-(4-(4-(5-methoxypyridin-3-yl)-2,6-dimethylphenoxy)-5-methyl-5H-pyrrolo[3,2-d]pyrimidin-2-ylamino) benzonitrile] | 1 to 10 | > 10
14 | Cc1cc(-c2ccc(C(N)=O)cc2)cc(C)c1Oc1nc(Nc2ccc(C#N)cc2)nc2c(Cl)cn(C)c12 [Example 88, 4′-(7-chloro-2-(4-cyanophenylamino)-5-methyl-5H-pyrrolo[3,2-d]pyrimidin-4-yloxy)-3′,5′-dimethylbiphenyl-4-carboxamide] | 1 to 10 | 1 to 10
15 | Cc1cc(-c2ccc(C(=O)N(C)C)cc2)cc(C)c1Oc1nc(Nc2ccc(C#N)cc2)nc2ccn(C)c12 [Example 89, 4′-(2-(4-cyanophenylamino)-5-methyl-5H-pyrrolo[3,2-d]pyrimidin-4-yloxy)-N,N,3′,5′-tetramethylbiphenyl-4-carboxamide] | 1 to 10 | > 10
16 | Cc1cc(-c2ccc(C(=O)N3CCC3)cc2)cc(C)c1Oc1nc(Nc2ccc(C#N)cc2)nc2ccn(C)c12 [Example 90] | 1 to 10 | > 10
17 | Cc1cc(-c2ccc(C(=O)N3CCC(C#N)C3)cc2)cc(C)c1Oc1nc(Nc2ccc(C#N)cc2)nc2ccn(C)c12 (centres unmarked) [Example 91, 1-(4′-(2-(4-cyanophenylamino)-5-methyl-5H-pyrrolo[3,2-d]pyrimidin-4-yloxy)-3′,5′-dimethylbiphenylcarbonyl) pyrrolidine-3-carbonitrile] | > 10 | > 10
18 | Cc1cc(-c2ccc(C(=O)NC3CC3)cc2)cc(C)c1Oc1nc(Nc2ccc(C#N)cc2)nc2ccn(C)c12 [Example 92, 4′-(2-(4-cyanophenylamino)-5-methyl-5H-pyrrolo[3,2-d]pyrimidin-4-yloxy)-N-cyclopropyl-3′,5′-dimethylbiphenyl-4-carboxamide] | > 10 | > 10
19 | Cc1cc(-c2ccc(C(=O)N3CCC(O)C3)cc2)cc(C)c1Oc1nc(Nc2ccc(C#N)cc2)nc2ccn(C)c12 (centres unmarked) [Example 94, 4-(4-(4′-(3-hydroxypyrrolidine-1-carbonyl)-3,5-dimethylbiphenyl-4-yloxy)-5-methyl-5H-pyrrolo[3,2-d]pyrimidin-2-ylamino) benzonitrile] | 1 to 10 | 1 to 10
20 | Cc1cc(-c2ccccc2)cc(C)c1Oc1nc(Nc2ccc(C#N)cc2)nc2ccn(C)c12 [Example 95, 4-(4-(3,5-Dimethylbiphenyl-4-yloxy)-5-methyl-5H-pyrrolo[3,2-d]pyrimidin-2-ylamino)benzonitrile] | > 10 | > 10
21 | Cc1cc(-c2ccncc2)ccc1Oc1nc(Nc2ccc(C#N)cc2)nc2nc[nH]c12 [Example 98, 4-(6-(2-Methyl-4-(pyridin-4-yl)phenoxy)-7H-purin-2-ylamino)benzonitrile] | < 1 | > 10
22 | COc1ccc(Cn2cnc3nc(Nc4ccc(C#N)cc4)nc(Oc4c(C)cc(-c5ccncc5)cc4Cl)c32)cc1 [Example 99, 4-(6-(2-chloro-6-methyl-4-(pyridin-4-yl)phenoxy)-7-(4-methoxybenzyl)-7H-purin-2-ylamino)benzonitrile] | 1 to 10 | > 10
